Among the data in US20260184710A1, “CASITAS B-LINEAGE LYMPHOMA PROTOONCOGENE B (CBL-B) DEGRADING COMPOUNDS AND ASSOCIATED METHODS OF USE” (Arvinas Operations, Inc., priority 2022, published 2026) are DC50 and Dmax values, retold here.

Molecules are shown by their SMILES. Where only a bound is given, the exact number is not on record here.

For assay [1], the target named is T1, Cbl-b (Homo sapiens, UniProt Q13191).
T1 construct: Cbl-b-HiBit KI Jurkat Cells were purchased from Promega; host or cells: Cbl-b-HiBiT knock-in Jurkat cells
Nature of the assay: Cbl-b Degradation Method A (FACS, anti-Cbl-b antibody staining). In kind it is cell-based. As to conditions: Cbl-b-HiBit KI Jurkat Cells, incubated at least 20 hours; for DC50: half maximal degradation, read-out: Cbl-b Degredation Method A IC50; for Dmax: Jurkat, maximum degradation observed, read-out: Cbl-b Degredation Method A Dmax (%). The essentials:
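Cbl-b-HiBit KI Jurkat cells treated with compound for at least 20 h at 37 °C, then fixed, permeabilized and stained with anti-Cbl-b antibody plus anti-rabbit AF488 secondary. Cbl-b levels read by FACS; DC50 and Dmax (percent of control) derived.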
A general note: HiBiT is a short tag that completes a luciferase, so light tracks the accessible tagged protein.

The target in assay [2] is T1, Cbl-b. Nature of the assay: Cbl-b Degradation Method B (Nano-Glo HiBiT lytic detection). In kind it is cell-based. As to conditions: Cbl-b-HiBit KI Jurkat Cells, incubated at least 6-24 hours; for DC50: half maximal degradation, read-out: Cbl-b Degredation Method B IC50; for Dmax: maximum degradation observed, read-out: Cbl-b Degredation Method B Dmax (%). In a few lines: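 Cbl-b-HiBiT knock-in Jurkat cells (20,000/well) were treated after ~24 h plating with an 11-point 1:3 series for 6-24 h at 37° C. Remaining Cbl-b measured by Nano-Glo HiBiT lytic luminescence. DC50 and Dmax expressed as % of control.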

T1 sequence (Q13191 whole entry): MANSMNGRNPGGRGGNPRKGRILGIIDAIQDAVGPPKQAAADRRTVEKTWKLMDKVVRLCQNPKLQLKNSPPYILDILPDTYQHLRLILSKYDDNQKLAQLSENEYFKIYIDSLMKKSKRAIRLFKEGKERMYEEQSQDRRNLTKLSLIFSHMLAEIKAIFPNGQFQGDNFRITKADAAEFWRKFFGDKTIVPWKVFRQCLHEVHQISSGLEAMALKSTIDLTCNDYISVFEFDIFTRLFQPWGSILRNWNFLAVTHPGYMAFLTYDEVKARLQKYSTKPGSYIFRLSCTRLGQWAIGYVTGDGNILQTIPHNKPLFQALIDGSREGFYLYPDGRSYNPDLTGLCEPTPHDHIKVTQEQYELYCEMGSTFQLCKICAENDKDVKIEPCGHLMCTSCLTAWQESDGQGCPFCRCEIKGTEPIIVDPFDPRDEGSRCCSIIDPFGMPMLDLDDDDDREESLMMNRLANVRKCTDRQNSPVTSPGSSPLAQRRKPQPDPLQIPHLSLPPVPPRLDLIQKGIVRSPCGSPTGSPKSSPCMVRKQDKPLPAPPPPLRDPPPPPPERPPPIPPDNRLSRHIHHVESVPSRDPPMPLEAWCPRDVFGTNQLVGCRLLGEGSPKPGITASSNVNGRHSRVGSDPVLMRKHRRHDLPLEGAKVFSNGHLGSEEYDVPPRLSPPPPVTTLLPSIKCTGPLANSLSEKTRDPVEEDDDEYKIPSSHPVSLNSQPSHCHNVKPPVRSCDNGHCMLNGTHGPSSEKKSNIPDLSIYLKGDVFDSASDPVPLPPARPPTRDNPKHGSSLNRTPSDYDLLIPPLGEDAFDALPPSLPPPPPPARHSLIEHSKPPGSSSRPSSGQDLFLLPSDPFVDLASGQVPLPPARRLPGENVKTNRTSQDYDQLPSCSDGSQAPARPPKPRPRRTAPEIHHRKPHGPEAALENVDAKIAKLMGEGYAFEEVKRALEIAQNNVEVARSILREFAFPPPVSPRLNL

As a reminder, the Dmax is the largest share of the target that was removed. Turning to `COc1c(N2CCC(O[C@H]3CC[C@H](CN4CCN(Cc5cc6c(c(C(F)(F)F)c5)CN(c5cccc(C7(Cc8nncn8C)COC7)c5)C6=O)CC4)CC3)CC2)ccc2c1CN(C1CCC(=O)NC1=O)C2=O` (stereo partly shown) [Example 193, 3-[4-methoxy-1-oxo-5-(4-{[(1r,4r)-4-[(4-{[2-(3-{3-[(4-methyl-4H-1,2,4-triazol-3-yl)methyl]oxetan-3-yl}phenyl)-3-oxo-7-(trifluoromethyl)-2,3-dihydro-1H-isoindol-5-yl]methyl}piperazin-1-yl)methyl]cyclohexyl]oxy}piperidin-1-yl)-2,3-dihydro-1H-isoindol-2-yl]piperidine-2,6-dione], at Cbl-b [1], the DC50 was less than 5 nM and the Dmax is more than 70%. Also, on Cbl-b [2], the DC50 was less than 5 nM and the Dmax is 35 to 70%.
For `C[C@H]1CN(C[C@H]2CC[C@@H](OC3CCN(c4ccc5c(c4F)CN(C4CCC(=O)NC4=O)C5=O)CC3)CC2)CCN1Cc1cc2c(c(C(F)(F)F)c1)CN(c1cccc(C3(Cc4nncn4C)COC3)c1)C2=O` (stereo partly drawn) [Example 194, 3-[4-fluoro-1-oxo-5-(4-{[(1r,4r)-4-{[(3S)-3-methyl-4-{[2-(3-{3-[(4-methyl-4H-1,2,4-triazol-3-yl)methyl]oxetan-3-yl}phenyl)-3-oxo-7-(trifluoromethyl)-2,3-dihydro-1H-isoindol-5-yl]methyl}piperazin-1-yl]methyl}cyclohexyl]oxy}piperidin-1-yl)-2,3-dihydro-1H-isoindol-2-yl]piperidine-2,6-dione], on Cbl-b [1], the DC50 is less than 5 nM and the Dmax was more than 70%. On Cbl-b [2], the DC50 is less than 5 nM and the Dmax was in the range of 35 to 70%.
With `C[C@@H]1CN(C[C@H]2CC[C@H](OC3CCN(c4ccc5c(c4F)CN(C4CCC(=O)NC4=O)C5=O)CC3)CC2)CCN1Cc1cc2c(c(C(F)(F)F)c1)CN(c1cccc(C3(Cc4nncn4C)COC3)c1)C2=O` (stereo partly drawn) [Example 195, 3-[4-fluoro-1-oxo-5-(4-{[(1r,4r)-4-{[(3R)-3-methyl-4-{[2-(3-{3-[(4-methyl-4H-1,2,4-triazol-3-yl)methyl]oxetan-3-yl}phenyl)-3-oxo-7-(trifluoromethyl)-2,3-dihydro-1H-isoindol-5-yl]methyl}piperazin-1-yl]methyl}cyclohexyl]oxy}piperidin-1-yl)-2,3-dihydro-1H-isoindol-2-yl]piperidine-2,6-dione], the DC50 at Cbl-b [1] and at Cbl-b [2] was less than 5 nM throughout. The Dmax at Cbl-b [1] is more than 70%; on Cbl-b [2], 35 to 70%.
Turning to `CC1CN(Cc2cc3c(c(C(F)(F)F)c2)CN(c2cccc(C4(Cc5nncn5C)COC4)c2)C3=O)CCN1C[C@H]1CC[C@H](OC2CCN(c3ccc4c(c3F)CN(C3CCC(=O)NC3=O)C4=O)CC2)CC1` (stereo partly shown) [Example 196, 3-[4-fluoro-1-oxo-5-(4-{[(1r,4r)-4-[(2-methyl-4-{[2-(3-{3-[(4-methyl-4H-1,2,4-triazol-3-yl)methyl]oxetan-3-yl}phenyl)-3-oxo-7-(trifluoromethyl)-2,3-dihydro-1H-isoindol-5-yl]methyl}piperazin-1-yl)methyl]cyclohexyl]oxy}piperidin-1-yl)-2,3-dihydro-1H-isoindol-2-yl]piperidine-2,6-dione], on Cbl-b [1], the DC50 was less than 5 nM and the Dmax was more than 70%. At Cbl-b [2], the DC50 is less than 5 nM and the Dmax is 35 to 70%.
On to `COc1c(N2CCC(O[C@H]3CC[C@H](CN4CCN(Cc5cc6c(c(C(F)(F)F)c5)CN(c5cccc([C@]7(Cc8nncn8C)C[C@@H](C#N)C7)c5)C6=O)CC4)CC3)CC2)ccc2c1CN(C1CCC(=O)NC1=O)C2=O` (stereo partly shown) [Example 199, (1r,3r)-3-[(4-methyl-4H-1,2,4-triazol-3-yl)methyl]-3-(3-{1-oxo-6-[(4-{[(1r,4r)-4-({1-[2-(2,6-dioxopiperidin-3-yl)-4-methoxy-1-oxo-2,3-dihydro-1H-isoindol-5-yl]piperidin-4-yl}oxy)cyclohexyl]methyl}piperazin-1-yl)methyl]-4-(trifluoromethyl)-2,3-dihydro-1H-isoindol-2-yl}phenyl)cyclobutane-1-carbonitrile], for which the DC50 at Cbl-b [1] and at Cbl-b [2] was less than 5 nM throughout. Also, the Dmax is more than 70% on Cbl-b [1] and 35 to 70% at Cbl-b [2].
As for `CC1c2nc(N3CCC(O[C@H]4CC[C@H](CN5CCN(Cc6cc7c(c(C(F)(F)F)c6)CN(c6cccc([C@]8(Cc9nncn9C)C[C@@H](C#N)C8)c6)C7=O)CC5)CC4)CC3)ccc2C(=O)N1C1CCC(=O)NC1=O` (stereo partly shown) [Example 203, (1r,3r)-3-[(4-methyl-4H-1,2,4-triazol-3-yl)methyl]-3-(3-{1-oxo-6-[(4-{[(1r,4r)-4-({1-[6-(2,6-dioxopiperidin-3-yl)-7-methyl-5-oxo-5H,6H,7H-pyrrolo[3,4-b]pyridin-2-yl]piperidin-4-yl}oxy)cyclohexyl]methyl}piperazin-1-yl)methyl]-4-(trifluoromethyl)-2,3-dihydro-1H-isoindol-2-yl}phenyl)cyclobutane-1-carbonitrile], on Cbl-b [1], the DC50 is less than 5 nM and the Dmax is 35 to 70%. Also, at Cbl-b [2], the DC50 was less than 5 nM and the Dmax was 35 to 70%.
On to `CC1CN(C[C@H]2CC[C@H](OC3CCN(c4ccc5c(c4F)CN(C4CCC(=O)NC4=O)C5=O)CC3)CC2)CCN1Cc1cc2c(c(C(F)(F)F)c1)CN(c1cccc([C@]3(Cc4nncn4C)C[C@@H](C#N)C3)c1)C2=O` (stereo partly shown) [Example 204, (1r,3r)-3-(3-{6-[(2-methyl-4-{[(1r,4r)-4-({1-[2-(2,6-dioxopiperidin-3-yl)-4-fluoro-1-oxo-2,3-dihydro-1H-isoindol-5-yl]piperidin-4-yl}oxy)cyclohexyl]methyl}piperazin-1-yl)methyl]-1-oxo-4-(trifluoromethyl)-2,3-dihydro-1H-isoindol-2-yl}phenyl)-3-[(4-methyl-4H-1,2,4-triazol-3-yl)methyl]cyclobutane-1-carbonitrile], for which, at Cbl-b [1], the DC50 is less than 5 nM and the Dmax was more than 70%. Further, on Cbl-b [2], the DC50 is less than 5 nM and the Dmax lay within 35 to 70%.
As for `CC1CN(C[C@H]2CC[C@H](OC3CCN(c4ccc5c(n4)C(C)N(C4CCC(=O)NC4=O)C5=O)CC3)CC2)CCN1Cc1cc2c(c(C(F)(F)F)c1)CN(c1cccc([C@]3(Cc4nncn4C)C[C@@H](C#N)C3)c1)C2=O` (stereo partly shown) [Example 208, (1r,3r)-3-(3-{6-[(2-methyl-4-{[(1r,4r)-4-({1-[6-(2,6-dioxopiperidin-3-yl)-7-methyl-5-oxo-5H,6H,7H-pyrrolo[3,4-b]pyridin-2-yl]piperidin-4-yl}oxy)cyclohexyl]methyl}piperazin-1-yl)methyl]-1-oxo-4-(trifluoromethyl)-2,3-dihydro-1H-isoindol-2-yl}phenyl)-3-[(4-methyl-4H-1,2,4-triazol-3-yl)methyl]cyclobutane-1-carbonitrile], on Cbl-b [1], the DC50 fell in the range of 5 to 50 nM and the maximal degradation (Dmax) is 35 to 70%. Also, on Cbl-b [2], the DC50 was less than 5 nM and the Dmax lay within 35 to 70%.
For the compound `CC1CN(C[C@H]2CC[C@H](OC3CCN(c4ccc5c(n4)C(C)N(C4CCC(=O)NC4=O)C5=O)CC3)CC2)CCN1Cc1cc2c(c(C(F)(F)F)c1)CN(c1cccc(C3(Cc4nncn4C)CCC3)c1)C2=O` (stereo partly shown) [Example 209, 3-[7-methyl-5-oxo-2-(4-{[(1r,4r)-4-[(3-methyl-4-{[2-(3-{1-[(4-methyl-4H-1,2,4-triazol-3-yl)methyl]cyclobutyl}phenyl)-3-oxo-7-(trifluoromethyl)-2,3-dihydro-1H-isoindol-5-yl]methyl}piperazin-1-yl)methyl]cyclohexyl]oxy}piperidin-1-yl)-5H,6H,7H-pyrrolo[3,4-b]pyridin-6-yl]piperidine-2,6-dione], the DC50 on Cbl-b [1] was 5 to 50 nM; on Cbl-b [2], less than 5 nM. Moreover, the maximal degradation (Dmax) on Cbl-b [1] and on Cbl-b [2] was 35 to 70% each time.
Consider `CC1c2nc(N3CCC(O[C@H]4CC[C@H](CN5CCN(Cc6cc7c(c(C(F)(F)F)c6)CN(c6cccc(C8(Cc9nncn9C9CC9)COC8)c6)C7=O)CC5)CC4)CC3)ccc2C(=O)N1C1CCC(=O)NC1=O` (stereo partly shown) [Example 211, 3-[7-methyl-5-oxo-2-(4-{[(1r,4r)-4-[(4-{[2-(3-{3-[(4-cyclopropyl-4H-1,2,4-triazol-3-yl)methyl]oxetan-3-yl}phenyl)-3-oxo-7-(trifluoromethyl)-2,3-dihydro-1H-isoindol-5-yl]methyl}piperazin-1-yl)methyl]cyclohexyl]oxy}piperidin-1-yl)-5H,6H,7H-pyrrolo[3,4-b]pyridin-6-yl]piperidine-2,6-dione], for which, at Cbl-b [1], the DC50 is less than 5 nM and the Dmax was less than 35%. For the same compound, the DC50 on Cbl-b [2] is more than 500 nM.
As for `CC1CN(C[C@H]2CC[C@H](OC3CCN(c4ccc5c(n4)C(C)N(C4CCC(=O)NC4=O)C5=O)CC3)CC2)CCN1Cc1cc2c(c(C(F)(F)F)c1)CN(c1cccc(C3(Cc4nncn4C)CC3)c1)C2=O` (stereo partly shown) [Example 212, 3-[7-methyl-5-oxo-2-(4-{[(1r,4r)-4-[(3-methyl-4-{[2-(3-{1-[(4-methyl-4H-1,2,4-triazol-3-yl)methyl]cyclopropyl}phenyl)-3-oxo-7-(trifluoromethyl)-2,3-dihydro-1H-isoindol-5-yl]methyl}piperazin-1-yl)methyl]cyclohexyl]oxy}piperidin-1-yl)-5H,6H,7H-pyrrolo[3,4-b]pyridin-6-yl]piperidine-2,6-dione], on Cbl-b [1], the DC50 fell in the range of 5 to 50 nM and the Dmax lay within 35 to 70%. At Cbl-b [2], the DC50 was less than 5 nM and the Dmax lay in the range of 35 to 70%.
